SMILES strings stand for the structures.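 Cells were grown in 96-well plates and exposed to each compound for 48 hours at five concentrations; endpoints were interpolated linearly between bracketing concentrations, or set to the highest concentration if not reached. GI50 is the concentration that inhibits growth by half.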 Calls of active or inactive are those of the source. Rule as the data show it: active = GI50 up to about 1.1 µM and inactive = higher. A value given as a limit tells only on which side of the number the result lay.

This is an account of results in ChEMBL document CHEMBL1201862, “PubChem BioAssay data set” (2004).

Some test systems named below: DMS-114; LXFL 529; SNB-78; DMS-273; KM-20L2; DLD-1; HOP-18; XF498; RXF 631.
Holding throughout (assay): DTP human tumour cell line panel, 48 h

As for `CCCCCCCCCCCC(=O)OCC1OC(n2cc(F)c(=O)[nH]c2=O)C(N)C(OC(=O)CCCCCCCCCCC)C1O` (configuration not stated), the GI50 in the assay with DMS-114 was 49.5 µM (inactive); in the assay with LXFL 529, 33.9 µM (inactive); in the assay with SNB-78, 71.1 µM (inactive); with DMS-273 it was 44.3 µM (inactive); with KM-20L2, > 100 µM (inactive).
Consider `CC1CC2C(=O)N(c3ccccc3)C(=O)C2c2c1c1ccccc1n2Cc1ccccc1` (configuration not stated), for which the GI50 was 31 µM (inactive) in the assay on DMS-114, > 100 µM (inactive) in the assay with LXFL 529 and 12.5 µM (inactive) with DLD-1.
With `CCOC(=O)/C(Br)=C1\OC(=O)c2ccccc2-c2ccccc21`, the GI50 in the assay on HOP-18 is 91.8 µM (inactive); in the assay with XF498, 65.8 µM (inactive); with DMS-114 it was 23.1 µM (inactive); in the assay on RXF 631, 33.3 µM (inactive); with LXFL 529 it was 29.4 µM (inactive); in the assay on SNB-78 it was 29.6 µM (inactive). In addition, the GI50 is 41.4 µM (inactive) with DMS-273 and 91.6 µM (inactive) with DLD-1.
Turning to `CCO/C([O-])=C(\C(=O)c1ccc([N+](=O)[O-])cc1)[n+]1c(C)n(C)c2ccccc21`, the GI50 in the assay with HOP-18, in the assay on DMS-114, with LXFL 529, in the assay on SNB-78, with DMS-273 and in the assay with KM-20L2 was > 100 µM (inactive) each time. For the same compound, the GI50 with DLD-1 is > 100 µM (inactive).
For `O=c1c2cc(Cl)ccc2n2nnc3ccc(NCCNCCO)c1c32`, the GI50 was 1.49 µM (inactive) in the assay on DMS-114; 1.07 µM (active) in the assay with RXF 631; 1.09 µM (active) in the assay with LXFL 529; 2.35 µM (inactive) in the assay on SNB-78; 0.641 µM (active) in the assay with DMS-273; 0.962 µM (active) in the assay on KM-20L2. The GI50 with DLD-1 is 1.2 µM (inactive).
For `CCOC(=O)N1CCC(=O)C(CNC23CC4CC(CC(C4)C2)C3)C1` (configuration not stated), the GI50 was 18.1 µM (inactive) in the assay with XF498; > 100 µM (inactive) in the assay on RXF 631; 18.3 µM (inactive) with LXFL 529; > 10 µM (inactive) in the assay on SNB-78; 25.2 µM (inactive) in the assay on DMS-273; > 100 µM (inactive) with KM-20L2. In addition, the GI50 in the assay with DLD-1 is 21.1 µM (inactive).
Take `COC(=O)C(C(=O)c1ccccc1)C(C(=O)C(=O)Nc1ccc(OC)cc1OC)C(=O)C(=O)c1ccc(C)cc1` (configuration not stated): the GI50 in the assay with HOP-18, in the assay with XF498, in the assay on DMS-114, with RXF 631, with LXFL 529 and in the assay with SNB-78 was > 100 µM (inactive) throughout. The GI50 in the assay on DMS-273, in the assay with KM-20L2 and in the assay with DLD-1 was > 100 µM (inactive) throughout.
Consider `O=C(O)CCCCCOc1cccnc1/C=N/NC1=NCCN1`, for which the GI50 is > 100 µM (inactive) with HOP-18; 91 µM (inactive) with XF498; > 100 µM (inactive) with LXFL 529; > 100 µM (inactive) with SNB-78; > 100 µM (inactive) with DMS-273; > 100 µM (inactive) in the assay with KM-20L2. The GI50 in the assay on DLD-1 was > 100 µM (inactive).
On to `CCOC(=O)CC[C@H](NC(=O)c1nc[nH]c1[N+](=O)[O-])C(=O)OCC`, for which the GI50 in the assay with HOP-18, with DMS-114, in the assay on LXFL 529, in the assay with SNB-78, in the assay on DMS-273 and in the assay with KM-20L2 was > 100 µM (inactive) throughout. Besides, the GI50 in the assay with DLD-1 was > 100 µM (inactive).
For the compound `COC(=O)c1nc(N)nc(O)c1-c1ccc(Cl)cc1`, the GI50 with XF498, in the assay with DMS-114, with RXF 631, with LXFL 529, with SNB-78 and in the assay on DMS-273 was > 100 µM (inactive) each time. Besides, the GI50 with KM-20L2 and with DLD-1 was > 100 µM (inactive) in each case.
`O=C1c2ccccc2C(=O)C1C(c1ccc([N+](=O)[O-])cc1)C1C(=O)c2ccccc2C1=O`: the GI50 was > 100 µM (inactive) in the assay with HOP-18; 55.2 µM (inactive) with XF498; > 10 µM (inactive) in the assay with DMS-114; 12.1 µM (inactive) in the assay on RXF 631; 30.8 µM (inactive) with LXFL 529; 33.4 µM (inactive) in the assay with SNB-78. The figures for the GI50 in the assay on DMS-273, with KM-20L2 and in the assay with DLD-1 were 99.1 µM (inactive), > 100 µM (inactive) and 34.8 µM (inactive), respectively.
With `C1=C(c2ccccc2)CN(c2ccccc2)OC1`, the GI50 with HOP-18 was 2.71 µM (inactive); with XF498, > 100 µM (inactive); in the assay with LXFL 529, 64 µM (inactive); with SNB-78 it was > 100 µM (inactive); with DMS-273, > 100 µM (inactive); in the assay on KM-20L2, 63.5 µM (inactive). Moreover, the GI50 in the assay with DLD-1 is 78.5 µM (inactive).
In the case of `NNC(=O)CCC(=O)NC1C2CC3CC(C2)CC1C3` (configuration not stated), the GI50 in the assay on DMS-114, in the assay on LXFL 529, with SNB-78, in the assay on DMS-273, in the assay on KM-20L2 and in the assay on DLD-1 was > 100 µM (inactive) throughout.
In the case of `CN(C)C(=S)/N=c1\ss/c(=N\c2ccccc2)n1-c1ccccc1`, the GI50 in the assay on HOP-18 was 28.5 µM (inactive); with DMS-114 it was 1.44 µM (inactive); in the assay on RXF 631 it was 29.9 µM (inactive); in the assay with LXFL 529, 0.0542 µM (active); in the assay with SNB-78 it was 20.7 µM (inactive); in the assay on DMS-273, 16.6 µM (inactive). In addition, in the assay on DLD-1, the GI50 was 28.4 µM (inactive).
For the compound `OC1OCC(COc2cc(Cl)c(Cl)cc2Cl)OC1O` (configuration not stated), the GI50 with HOP-18 was 25.6 µM (inactive); with DMS-114, 28.4 µM (inactive); in the assay with RXF 631, 32.7 µM (inactive); in the assay with LXFL 529 it was 46.8 µM (inactive); with SNB-78 it was 22.7 µM (inactive); in the assay on DMS-273, 36.4 µM (inactive). The values for the GI50 in the assay on KM-20L2 and with DLD-1 were > 100 µM (inactive) and 44.2 µM (inactive), respectively.
As for `NC(=O)N/N=C(\CCC(=O)N(Cc1ccccc1)Cc1ccccc1)CC(=O)c1ccc(F)cc1`, the GI50 in the assay on HOP-18, with DMS-114, in the assay with RXF 631, in the assay with LXFL 529, with SNB-78 and in the assay with KM-20L2 was > 100 µM (inactive) each time. The GI50 in the assay on DLD-1 is > 100 µM (inactive).
In the case of `O=C(CSc1nnc(-c2ccc(/N=C\c3ccc(Cl)cc3)cc2)o1)Nc1ccccc1[N+](=O)[O-]`, the GI50 in the assay on HOP-18, in the assay on XF498, in the assay on DMS-114, with LXFL 529, in the assay on SNB-78 and in the assay with DMS-273 was > 100 µM (inactive) in each case. Also, in the assay with KM-20L2, the GI50 was > 100 µM (inactive).
`FC(F)(F)c1nc(-c2ccccc2Cl)[nH]c1C(F)(F)F`: the GI50 is 0.364 µM (active) in the assay on HOP-18; 0.621 µM (active) in the assay with XF498; 0.673 µM (active) in the assay on DMS-114; 0.935 µM (active) with LXFL 529; 1.06 µM (active) in the assay with SNB-78; 0.873 µM (active) in the assay on DMS-273. For the same compound, the GI50 with KM-20L2 is 0.619 µM (active); in the assay on DLD-1 it was 1.13 µM (inactive).
Regarding `CCC(/C(=N/NC(=O)C[N+](C)(C)C)c1ccccc1)C1OC(=O)c2ccccc21` (configuration not stated), the GI50 in the assay with XF498, in the assay with DMS-114, in the assay with RXF 631, in the assay with LXFL 529, with SNB-78 and with DMS-273 was > 100 µM (inactive) throughout. For the same compound, in the assay on KM-20L2, the GI50 is > 100 µM (inactive).
Turning to `O=[N+]([O-])c1ccc(N2C[N+](c3ccccc3)=NC(c3ccccc3)=N2)cc1`, the GI50 is 21.1 µM (inactive) with HOP-18; 21.4 µM (inactive) in the assay with XF498; 22.5 µM (inactive) in the assay on DMS-114; 30.2 µM (inactive) with LXFL 529; > 100 µM (inactive) in the assay with SNB-78; 45.1 µM (inactive) in the assay on DMS-273. Further, the GI50 in the assay on KM-20L2 was 31.9 µM (inactive); in the assay on DLD-1, 32.2 µM (inactive).
In the case of `O=C(O)CSc1nnc(-c2ccc(O)cc2)[nH]1`, the GI50 in the assay on HOP-18, in the assay on XF498, in the assay with DMS-114, in the assay with RXF 631, in the assay on SNB-78 and with DMS-273 was > 100 µM (inactive) throughout. The GI50 in the assay with KM-20L2 and with DLD-1 was > 100 µM (inactive) throughout.
For the compound `c1ccc2c3c([nH]c2c1)C1(CCCCC1)c1c([nH]c2ccccc12)C31CCCCC1`, the GI50 was 20.6 µM (inactive) in the assay on HOP-18; > 100 µM (inactive) in the assay on XF498; 31.3 µM (inactive) in the assay with DMS-114; 40.8 µM (inactive) with LXFL 529; 18.8 µM (inactive) in the assay with SNB-78; 22.3 µM (inactive) with DMS-273. The GI50 with KM-20L2 is 36.1 µM (inactive); in the assay with DLD-1 it was 96.2 µM (inactive).
As to `COc1ccc(OCC(=O)O)c2c1CCC(C(C)C)C2=O` (configuration not stated), the GI50 with HOP-18, with DMS-114, in the assay on RXF 631, in the assay on LXFL 529, in the assay on SNB-78 and in the assay with DMS-273 was > 100 µM (inactive) in each case. The GI50 with KM-20L2 and in the assay on DLD-1 was > 100 µM (inactive) throughout.
In the case of `COc1ccc(OC(=O)N2C/C(=C\c3ccccc3)C(=O)/C(=C/c3ccccc3)C2)cc1`, the GI50 is 16.8 µM (inactive) with HOP-18; 2.64 µM (inactive) in the assay on LXFL 529; 3.43 µM (inactive) in the assay on SNB-78; 2.09 µM (inactive) with DMS-273; 5.42 µM (inactive) in the assay on KM-20L2; 1.71 µM (inactive) with DLD-1.
As to `O=C(CCc1nnc(S)[nH]1)Nc1ccccc1Cl`, the GI50 in the assay with HOP-18, in the assay on XF498, with DMS-114, in the assay with LXFL 529, in the assay with SNB-78 and in the assay on DMS-273 was > 100 µM (inactive) in each case. Further, the GI50 in the assay with KM-20L2 and with DLD-1 was > 100 µM (inactive) throughout.
As to `Cc1nc2ccccc2c(=O)[nH]1`, the GI50 with HOP-18, in the assay with XF498, in the assay with RXF 631, in the assay on LXFL 529, in the assay on SNB-78 and in the assay with KM-20L2 was > 100 µM (inactive) each time. For the same compound, the GI50 with DLD-1 is > 100 µM (inactive).

The term GI50 denotes the concentration that inhibits growth by half.
